Measurements taken from patent US10981932B2, “Macrocyclic indole derivatives” (Bayer Aktiengesellschaft, priority 2016, dated 2021).
Counter-ions that a name gives are not always drawn.

How the values were obtained:
SUDHL10 [1] = test: Anti-proliferative effect (CellTiter-Glo, 72 h), SUDHL10; assay type: cell-based; conditions: SUDHL10 cells, antiproliferation, 72 h incubation, median, read-out: Antiproli SUDHL10 [M] (median)
In short: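 Viable cells quantified with CellTiter-Glo after 72 h at 37 °C; rim wells excluded; day 0 plate as baseline.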

BCL-XL = target: T1, BCL-XL (Homo sapiens, UniProt Q07817); test: Protein-protein interaction assay BCL-XL/Bad BH3 peptide (BCL-XL assay), TR-FRET; assay type: binding; conditions: His-BCL-XL / Bad BH3-derived peptide
T1 construct: BCL-XL (amino acids 1-212, C-terminal fused to a hexahistidine (6×His) tag); purchased BPS Bioscience (San Diego, Calif., USA); host or cells: E. coli
Procedure: Protein-Protein Interaction Assay: BCL-XL/Bad BH3 Peptide (BCL-XL Assay)
The dose-dependent inhibition by the compounds described in this invention of the interaction between […] and the BH3 domain of Bad (both human) was determined using a steady state binding competition assay with time-resolved fluorescence energy transfer (TR-FRET) readout. For that purpose BCL-2 (amino acids 1-211, C-terminal fused to a hexahistidine (6×His) tag (SEQ ID NO: 3) and a synthetic Bad BH3-derived peptide of sequence Biotin-PEG2-PEG2-NLWAAQRYGRELRR-NIe-SDEFVDSFKK-amide (SEQ ID NO: 2) served as protein receptor and tracer ligand respectively. The recombinant BCL-2 protein (expressed in E. coli) was purchased from BPS Bioscience (San Diego, Calif., USA). The Bad BH3-derived peptide can be obtained from e.g. Biosyntan (Berlin, Germany).
In the assay 11 different concentrations of each compound (0.1 nM, 0.33 nM, 1.1 nM, 3.8 nM, 13 nM, 44 nM, 0.15 μM, 0.51 μM, 1.7 μM, 5.9 μM and 20 μM) were typically measured as duplicates in the same microtiter plate. For that, 100-fold concentrated DMSO solutions were prepared by serial dilutions (1:3.4) of a 2 mM stock solution in a clear, 384-well microtiter plate (Greiner Bio-One, Frickenhausen, Germany). From there, 50 nl were transferred in a dark test plate (Greiner Bio-One. Frickenhausen, Germany). The assay was initiated by addition of 2 μl of a 2,5-fold concentrated Hs-BCL-XL solution (usually for a 1 nM end concentration in 5 μl reaction volume) in aqueous assay buffer [50 mM Tris/HCl pH 7, 100 mM sodium chloride (NaCl), 50 mM potassium fluoride (KF), 0.005% Tween-20, 2 mM DTT, 0.1% bovine gamma globulin (BGG)] to the compounds in the assay plate. This was followed by a 10-minute incubation step at 22° C. for pre-equilibration of the putative complex between His-BCL-XL and the compounds.
The mixture was incubated in the dark for one hour at 22° C. and then overnight at 4° C. The formation of BCL-XL/Bad complexes was determined by measuring the resonance energy transfer of the anti-His- Eu-cryptate antibody to the streptavidin-XL665 present in the reaction. For that purpose, the fluorescence emission at 620 nm and 665 nm after excitation at 330-350 nm was measured in a TR-FRET measuring instrument, for instance a Rubystar or a Pherastar (both from BMG Lab Technologies, Offenburg, Germany) or a Viewlux (Perkin-Elmer). The ratio of the emission at 665 nm and at 622 nm was used as indicator of the amount of BCL-XL/Bad complexes present.
The resulting data (ratio) were normalized, taking 0% inhibition as the mean value of control measurements (usually 32 data points) where all reagents were included. In this case 50 nl DMSO were used instead of compounds. A 100% inhibition corresponded to the mean value of control measurements (usually 32 data points) where all reagents except BCL-XL were included. IC50 values were determined by regression analysis based on a 4 parameter equation (minimum, maximum, IC50, Hill; Y=Max+(Min−Max)/(1+(X/IC50)^Hill) using the Screener Software (Genedata).

SUDHL5 [2] = test: Induction of cytotoxicity (CellTiter-Glo, 5 h), SUDHL5; conditions: read-out: Cytotox SUDHL5 [M] (median); SUDHL5 cells, cytotoxicity induction, CellTiter-Glo, 5 h incubation, median
SUDHL5 [3] = test: Induction of caspase-3/7 activity (Caspase-Glo 3/7), SUDHL5; assay type: cell-based; conditions: caspase-3/7 induction, SUDHL5 cells, 3 h treatment; median
In short: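 Caspase-Glo 3/7 luminescence, 3 h compound exposure, 37 °C, humidified. Minus medium-only blank. EC50 fit: C0=1, plateau = reference max induction.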

SUDHL10 [4] = test: Induction of cytotoxicity (CellTiter-Glo, 5 h), SUDHL10
[5] = Homo sapiens, SU-DHL10, 5 h, read-out: Cytotox SUDHL10 [M] (median), SUDHL10 cells, cytotoxicity induction, CellTiter-Glo, 5 h incubation, median
[6] = read-out: Cytotox SUDHL10 [M] (median), SUDHL10 cells, cytotoxicity induction, CellTiter-Glo, 5 h incubation, median

T1 sequence (Q07817 1-212): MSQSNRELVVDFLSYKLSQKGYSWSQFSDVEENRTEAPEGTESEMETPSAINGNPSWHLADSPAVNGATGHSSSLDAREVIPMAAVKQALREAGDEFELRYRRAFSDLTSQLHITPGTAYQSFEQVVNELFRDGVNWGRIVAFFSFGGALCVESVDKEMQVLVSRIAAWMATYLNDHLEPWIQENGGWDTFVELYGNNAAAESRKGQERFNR

Row | SMILES | IC50 (SUDHL10 [1]; Homo sapiens, SU-DHL10, 72 h) [M] | IC50 (BCL-XL) [µM] | IC50 (SUDHL5 [2]) [M] | EC50 (SUDHL5 [3]) [µM] | IC50 (SUDHL10 [4]; [5]) [M] | IC50 (SUDHL10 [1]) [M] | IC50 (SUDHL10 [4]; [6]) [M]
1 | CCn1nc2c(c1C1CC1)-c1cccc3c(CCCOc4cccc5ccccc45)c(C(=O)O)n(c13)CCCCOC2 (single isomer, unassigned; enantiomer 1) [Example 082, 3-cyclopropyl-2-ethyl-7-[3-(naphthalen-1-yloxy)propyl]-2,10,11,12,13,15-hexahydropyrazolo[4′,3′:9,10][1,6]oxazacycloundecino[8,7,6-hi]indole-8-carboxylic acid-N-ethylethanamine Salt (Enantiomer 1)] | 7.79e-06 | > 20 | 8.19e-06 | 8.69 | > 3.3e-05 |  | 
2 | COCCn1nc2c(c1C1CC1)-c1cccc3c(CCCOc4cccc5ccccc45)c(C(=O)O)n(c13)CCCCOC2 (single isomer, unassigned; enantiomer 1) [Example 085, 3-Cyclopropyl-2-(2-methoxyethyl)-7-[3-(naphthalen-1-yloxy)propyl]-2,10,11,12,13,15-hexahydropyrazolo[4′,3′:9,10][1,6]oxazacycloundecino[8,7,6-hi]indole-8-carboxylic acid-N-ethylethanamine Salt (Enantiomer 1)] |  | > 20 | 3.91e-06 | 3.59 | 1.97e-05 | 3.08e-06 | 
3 | Cc1c2c(nn1C1CC1)COCCCCn1c(C(=O)O)c(CCCOc3cccc4ccccc34)c3cccc-2c31 (single isomer, unassigned; enantiomer 1) [Example 093, 2-cyclopropyl-3-methyl-7-[3-(naphthalen-1-yloxy)propyl]-2,10,11,12,13,15-hexahydropyrazolo[4′,3′:9,10][1,6]oxazacycloundecino[8,7,6-hi]indole-8-carboxylic acid-N-ethylethanamine Salt (Enantiomer 1)] | 1.03e-05 | > 20 | 2.1e-06 | 2.83 |  |  | 7.2e-06
4 | COCCn1nc2c(c1C)-c1cccc3c(CCCOc4cccc5ccccc45)c(C(=O)O)n(c13)CCCCOC2 (single isomer, unassigned; enantiomer 1) [Example 107, 2-(2-methoxyethyl)-3-methyl-7-[3-(naphthalen-1-yloxy)propyl]-2,10,11,12,13,15-hexahydropyrazolo[4′,3′:9,10][1,6]oxazacycloundecino[8,7,6-hi]indole-8-carboxylic acid-N-ethylethanamine Salt (Enantiomer 1)] |  | > 20 | 1.73e-06 | 1.47 |  | 5.32e-06 | 4.65e-06
5 | CCc1c2c(nn1C)CN(C)CCCn1c(C(=O)O)c(CCCOc3cccc4ccccc34)c3ccc(C)c-2c31 (single isomer, unassigned; enantiomer 1) [Example 145, 11-Ethyl-7,10,12-trimethyl-1-[3-(1-naphthyloxy)propyl]-4,5,6,7,8,10-hexahydropyrazolo[3′,4′:7,8][1,5]diazecino[9,10,1-hi]indole-2-carboxylic acid-N-ethylethanamine Salt (Enantiomer 1)] |  | > 20 | 1.4e-06 | 0.889 |  | 4.25e-06 | 2.4e-06
6 | CCc1c2c(nn1C)COCCCCn1c(C(=O)O)c(CCCOc3cccc4ccccc34)c3cccc-2c31 (single isomer, unassigned; enantiomer 1) [Example 148, 3-Ethyl-2-methyl-7-[3-(1-naphthyloxy)propyl]-2,10,11,12,13,15-hexahydropyrazolo[4′,3′:9,10][1,6]oxazacycloundecino[8,7,6-hi]indole-8-carboxylic acid-N-ethylethanamine Salt (Enantiomer 1)] | 5.87e-06 | > 20 | 9.08e-07 | 0.881 |  |  | 2.4e-06
7 | CCc1c2c(nn1C)COCCCCn1c(C(=O)O)c(CCCOc3cccc4ccccc34)c3ccc(C)c-2c31 (single isomer, unassigned; enantiomer 1) [Example 154, 3-Ethyl-2,4-dimethyl-7-[3-(1-naphthyloxy)propyl]-2,10,11,12,13,15-hexahydropyrazolo[4′,3′:9,10][1,6]oxazacycloundecino[8,7,6-hi]indole-8-carboxylic acid-N-ethylethanamine Salt (Enantiomer 1)] | 4.11e-06 | > 20 | 1.08e-06 | 0.661 |  |  | 2.03e-06
8 | Cn1nc(COc2ccc(N3CCN(S(C)(=O)=O)CC3)cc2)c2c1COCCCCn1c(C(=O)O)c(CCCOc3cccc4ccccc34)c3cccc-2c31 (single isomer, unassigned; enantiomer 2) [Example 1-10, 1-methyl-3-({4-[4-(methylsulfonyl)piperazin-1-yl]phenoxy}methyl)-7-[3-(naphthalen-1-yloxy)propyl]-1,10,11,12,13,15-hexahydropyrazolo[4′,3′:9,10][1,6]oxazacycloundecino[8,7,6-hi]indole-8-carboxylic acid (enantiomer 2)] |  | > 20 | 4.33e-07 | 0.486 |  | 1.35e-06 | 4.74e-07
9 | Cn1nc(COc2ccc(N3CCN(S(=O)(=O)C4CC4)CC3)cc2)c2c1COCCCCn1c(C(=O)O)c(CCCOc3cccc4ccccc34)c3cccc-2c31 (single isomer, unassigned; enantiomer 2) [Example 1-13, 3-({4-[4-(cyclopropylsulfonyl)piperazin-1-yl]phenoxy}methyl)-1-methyl-7-[3-(naphthalen-1-yloxy)propyl]-1,10,11,12,13,15-hexahydropyrazolo[4′,3′:9,10][1,6]oxazacycloundecino[8,7,6-hi]indole-8-carboxylic Acid (Enantiomer 2)] |  | > 20 | 4.1e-07 | 0.324 |  | 1.38e-06 | 4.36e-07
10 | Cc1nn(C)c2c1-c1cccc3c(CCCOc4ccc(F)c5ccccc45)c(C(=O)O)n(c13)CCCCOC2 (single isomer, unassigned; enantiomer 2) [Example 023, 7-{3-[(4-fluoronaphthalen-1-yl)oxy]propyl}-1,3-dimethyl-1,10,11,12,13,15-hexahydropyrazolo[4′3′:9,10][1,6]oxazacycloundecino[8,7,6-hi]indole-8-carboxylic acid-N-ethylethanamine Salt (Enantiomer 2)] |  | > 20 | 1.84e-06 | 2.15 |  | 9.57e-06 | 5.85e-06
